{"source": "patent US8080529B2", "about": "“Macrolides with anti-inflammatory activity” (Glaxo Group Limited, priority 2005, dated 2011)", "assay_type_in_all_cases": "in vivo", "key": {"IL-6": {"test_system": "IL-6", "experiment": "Lung neutrophilia induced by bacterial lipopolysaccharide in male BALB/cJ mice: IL-6 in BALF", "details": "2.5 mg i.p.; 24 hours after LPS", "description": "(§1) Male BALB/cJ mice (Iffa Credo, France), with average weight 30 g were randomly grouped (n=7 in testing group, 8 in positive control, 7 in negative control). Mice were administered intraperitoneally (i.p.) a single dose of 5 or 2.5 mg of test compound. Two hours after administration, 2 μg of bacterial lipopolysaccharide (LPS), dissolved in PBS in a volume of 60 μL, was intranasally administered to all experimental groups except the negative control group, which received the same volume (60 μL) of vehicle PBS. Animals were sacrificed approximately 24 hours after application of LPS in order to obtain bronchoalveolar lavage fluid (BALF), which was used to determine concentrations of IL-6 and TNF-α, absolute number of cells, and the percentage of neutrophils in BALF. Results are expressed as percentage of decrease of total cell number, relative number of neutrophils, and TNF-α, and IL-6 concentration in BALF of treated animals compared to positive control (LPS stimulated, but untreated animals).\n(§2) Results are expressed as percentage of decrease of total cell number, relative number of neutrophils, and TNF-alpha and IL-6 concentration in BALF of treated animals compared to positive control (LPS stimulated, but untreated animals)."}, "TNF-α [1]": {"test_system": "TNF-α", "experiment": "Lipopolysaccharide induced TNF-α production in Balb/cJ mice", "details": "Mus musculus, ip, 1.5 h; 10 mg/kg intraperitoneally, 30 min before LPS; 90 min after LPS; read-out: % inhibition of TNF-α production (plasma)", "description": "Male Balb/cJ mice (Iffa Credo, France) weighing 25-33 g were randomly grouped (n=7 in test group, 7 in positive control group, 4 in negative control group). Test compounds, as well as vehicle [0.125% carboxymethyl-cellulose (Sigma, USA)], were administered to the mice intraperitoneally. Test compounds were administered at a dose of 10 mg/kg of body weight, in a volume of 10 mL/kg of body weight. Thirty minutes later, a sterile solution of lipopolysaccharide (LPS) (Sigma, USA) in saline was intraperitoneally administered at a concentration and volume of 25 μg/0.2 mL/mouse to each animal, except those in negative control. Ninety minutes following administration, all animals were sacrificed by puncturing a. carotis communis. The plasma concentration of TNF-α was determined by sandwich ELISA, using capture and detection antibodies (R&D, USA) according to manufacturer's recommendations. Results are presented in the following table as percent of inhibition of TNF-α production in comparison to the positive control (stimulated, but untreated animals)."}, "TNF-α [2]": {"test_system": "TNF-α", "experiment": "Lung neutrophilia induced by bacterial lipopolysaccharide in male BALB/cJ mice: TNF-α in BALF", "details": "2.5 mg i.p.; 24 hours after LPS", "description": "as §1, §2"}, "neutrophils": {"test_system": "neutrophils", "experiment": "Lung neutrophilia induced by bacterial lipopolysaccharide in male BALB/cJ mice: cells in BALF and lung tissue", "details": "2.5 mg i.p.; 24 hours after LPS", "description": "as §1, §2\nBesides accumulation of inflammatory cells in BALF, the extent and anatomic site of pulmonary inflammation induced by LPS was assessed 24 hours after PBS or LPS exposure. Accumulation of granulocytes and mononuclear cells in peribronchial (PB) and perivascular (PV) lung tissue areas and in alveolar spaces was monitored following sacrifice of the animals."}}, "data": [{"smiles": "CC[C@H]1OC(=O)[C@H](C)[C@@H](O[C@H]2C[C@@](C)(OC)C(OC(=O)CCN(CC)CC)[C@H](C)O2)[C@H](C)[C@@H](O[C@@H]2O[C@H](C)C[C@H](N(C)C(C)=O)[C@H]2O)[C@](C)(OC)C[C@@H](C)C(=O)N[C@H](C)[C@@H](O)[C@]1(C)O", "note": "(some centres unmarked) [Example 62, 3′-N-methyl-3′-N-acetyl-4″-O-(3-diethylaminopropionyl)-6-O-methyl-9a-aza-9a-homoerythromycin A]", "values": [{"measurement": "Percentage of decrease of IL-6 concentration in BALF", "setting": "IL-6", "result": 22, "unit": "%"}, {"measurement": "inhibition in vivo at 10 mg/kg", "setting": "TNF-α [1]", "result": 59, "unit": "%"}, {"measurement": "Percentage of decrease of TNF-α concentration in BALF", "setting": "TNF-α [2]", "result": 62, "unit": "%"}, {"measurement": "% decrease of neutrophils in BALF", "setting": "neutrophils", "result": 13, "unit": "%"}, {"measurement": "% decrease of total cell no. in BALF", "setting": "neutrophils", "result": 47, "unit": "%"}]}]}
